Reference: US9446011B2, “Anticonvulsant combination therapy” (UCB Pharma GmbH, priority 2006, dated 2016)
Entries after “also recorded” stand apart in the source; their conditions may differ.

How the values were obtained:
6 Hz-induced seizures = assay: 6 Hz seizure test in mice with isobolographic analysis; settings: for doses for antiseizure effect compared with those needed in the MES test: MES data obtained in other studies; for anticonvulsant effects against 6 Hz seizure: drug administered alone, i.p., mice
epileptic seizures = assay: ED50 values in various models of the rat and the mouse; assay type: in vivo; settings: i.p.
Description: The skilled person may determine the ED50 values by methods known in the art. It is preferred that the ED50 values are determined by preclinical or/and clinical trials. Published ED50 values may also be used. […] FIGS. 12 and 13 disclose specific ED50 values obtained in various models of the rat and the mouse. A person skilled in the art knows that in a particular model, among different species, ED50 values show a variation by a factor of up to 5 or even larger.

[1] = tested on: 6 Hz refractory seizure model; settings: in vivo; cited from earlier work
[2] = tested on: pattern of neuronal activation; settings: 2-deoxy glucose technique; cited from earlier work
[3] = tested on: neurotransmitter receptors or ion channels; settings: more than 100 different sites; cited from earlier work
[4] = tested on: maximal electroshock seizure [MES]; settings: in vivo; cited from earlier work
glutamate transmission = settings: mouse cortical neurons; cited from earlier work
[5] = tested on: cobalt-homocysteine-induced status epilepticus; settings: in vivo; cited from earlier work
NMDA-evoked currents = settings: cell/tissue culture; cited from earlier work
[6] = Clinical population pharmacokinetic analysis
[7] = tested on: voltage gated sodium channels; assay: Voltage gated sodium channels in cell/tissue culture; assay type: cell-based; settings: recent data
[8] = tested on: voltage gated sodium channels; settings: cell/tissue culture; cited from earlier work
motor coordination = assay: Rotarod test; assay type: in vivo, mice; settings: drug alone at pharmacological doses
Description: The impaired motor function was quantified by the rotarod test in mice according to Dunham and Miya (1957). The rotarod test was undertaken by use of a rod of 3 cm diameter, rotating at constant speed of 6 rpm. In this test, an acute neurological deficit (adverse effects produced by AEDs) was indicated by the inability of the animals to maintain their equilibrium for at least 120 s on the rotating rod. The dose ratio assessed in this model was always 1:1. For comparison, each AED was tested alone at its ED50 and 50% of its ED50 in the 6 Hz model.

sound-induced seizure = settings: mouse, in vivo; cited from earlier work
GABA currents = settings: mouse cortical neurons; cited from earlier work
[9] = tested on: refractory self-sustaining status epilepticus; settings: in vivo; cited from earlier work
[10] = tested on: lithium-pilocarpine-induced status epilepticus; settings: in vivo; cited from earlier work
[11] = molecular target: collapsing response mediator protein CRMP-2 (Homo sapiens, UniProt Q16555); assay: Modulation of CRMP-2; settings: recent data

In the case of `NCC1(CC(=O)O)CCCCC1` [GBP, gabapentin], the “doses for antiseizure effect compared with those needed in the MES test” value (6 Hz-induced seizures) was “significantly higher doses” and the “anticonvulsant effects against 6 Hz seizure” value (“anticonvulsant effects” for short) (6 Hz-induced seizures) was “dose-dependent anticonvulsant effects”.

For `CC1(C)O[C@@H]2[C@@H](CO[C@@]3(COS(N)(=O)=O)OC(C)(C)O[C@@H]23)O1` [TPM, topiramate], the “doses for antiseizure effect compared with those needed in the MES test” value (6 Hz-induced seizures) was “significantly higher doses” and the “anticonvulsant effects” value (6 Hz-induced seizures) was “dose-dependent anticonvulsant effects”.

For `CC[C@@H](C(N)=O)N1CCCC1=O` [LEV, levetiracetam], the ED50 (epileptic seizures) is listed as “about 20 mg/kg body weight”, the “anticonvulsant effects” value (6 Hz-induced seizures) is listed as “dose-dependent anticonvulsant effects” and the “protection in the 6 Hz model” value [1] is listed as “complete protection”.

For `NC(=O)N1c2ccccc2C=Cc2ccccc21` [CBZ, carbamazepine], the “doses for antiseizure effect compared with those needed in the MES test” value (6 Hz-induced seizures) was “significantly higher doses” and the “anticonvulsant effects” value (6 Hz-induced seizures) was “dose-dependent anticonvulsant effects”.

For `COC[C@@H](NC(C)=O)C(=O)NCc1ccccc1` [LCM, R-2-acetamido-N-benzyl-3-methoxypropionamide], the “effect on basal patterns” value [2] is listed as “no effect”, the “effect on the pattern of neuronal activation by 6 Hz induced seizures” value [2] is listed as “attenuated” and the binding [3] is listed as “neither LCM nor its metabolites bind”. For the same compound, the anticonvulsant activity [4] was “anticonvulsant activity has been shown”, the “effect on glutamate transmission” value (glutamate transmission) was “inhibited glutamate transmission indirectly” and the “activity against status epilepticus” value [5] was “effective”. The “potency compared to the other tested AEDs” value (6 Hz-induced seizures; 6 Hz model, drugs alone) was “highest potency”, the “anticonvulsant effects” value (6 Hz-induced seizures) was “dose-dependent anticonvulsant effects; also recorded: fully protected” and the “effects on NMDA-evoked currents” value (NMDA-evoked currents) was “no effects”. For the same compound, the “effect on plasma levels of AEDs or vice versa” value [6] was “no evidence for any effect”, the “slow inactivation of voltage-gated sodium channels” value [7] was “enhances slow inactivation” and the anticonvulsant activity [1] was “anticonvulsant activity has been shown”. For the same compound, the “effects at voltage gated sodium channels” value [8] was “no effects”, the rotarod performance (motor coordination) was “did not impair rotarod performance” and the anticonvulsant activity (sound-induced seizure) was “anticonvulsant activity has been shown”. The “effect on GABA currents” value (GABA currents) was “increased GABA currents”, the “activity against status epilepticus” value [9] was “active” and the “activity against status epilepticus” value [10] was “effective”. The “effect on CRMP-2” value [11] was “modulates”.

In the case of `O=C1NC(=O)C(c2ccccc2)(c2ccccc2)N1` [PHT, phenytoin], the “doses for antiseizure effect compared with those needed in the MES test” value (6 Hz-induced seizures) was “significantly higher doses” and the “anticonvulsant effects” value (6 Hz-induced seizures) was “dose-dependent anticonvulsant effects”.

For `Nc1nnc(-c2cccc(Cl)c2Cl)c(N)n1` [LTG, lamotrigine], the ED50 (epileptic seizures) was “about 85 mg/kg body weight”, the “doses for antiseizure effect compared with those needed in the MES test” value (6 Hz-induced seizures) was “significantly higher doses” and the “anticonvulsant effects” value (6 Hz-induced seizures) was “dose-dependent anticonvulsant effects”.
